The text below walks through data of US4505908A, “7-Bromo-5-(2-halophenyl)-1H-2,3-dihydro-1,4-benzodiazepine pharmaceuticals” (priority 1981, dated 1985).

Each structure is given as a SMILES string. Some results are limits rather than exact numbers.

Data set [1] in a line: Acute Toxicity (7-day, single application per os). The settings on record: in vivo, po, single application p.o., NMRI mouse on an empty stomach. The protocol: The acute 7-day toxicity is determined after a single application per os on the white NMRI mouse, on an empty stomach, and the LD50 values are calculated by means of electronic data processing through a probit analysis.

The nature of data set [2]: Rotating rod test (muscular coordination impairing activity). The settings on record: mouse, in vivo, po. Here is the method:
The ability of muscular coordination is determined in the mouse by the rotating rod test according to Blum (1973).
For this test, only male NMRI mice are used, which can support themselves for five minutes on a rotating rod with a diameter of 4 cm at a rotational speed of 12 rotations per minute.
The test substances are administered orally to the animals one hour before the commencement of the test in the form of a 2% suspension in tylose solution. The animals are each placed twice for a period of 60 seconds onto the rotating rod. Animals which cannot support themselves on the rotating rod for a total of 110 seconds are regarded as having impaired muscular coordination. The dose which brings about an impairment in 50% of the animals is regarded as the ED50.
(§1) In columns 5 and 6 of the Table, the quotients which result from dividing the doses impairing muscular coordination or muscle tone by the anxiolytically effective doses are indicated.

The nature of data set [3]: Traction test (muscle relaxant activity / disturbance of muscle tone). The conditions noted are these: mouse, in vivo, po. The protocol:
In this test the influence of the test substances on the muscle tone is evaluated. The test substance is administered orally to mice. After 120 minutes the mice are suspended by their front paws on a thin, horizontally taut wire. The dose at which exactly half the animals fail to also grasp the wire with their hind paws within 5 seconds is regarded as the ED50.
as §1

Consider `COCC1CN=C(c2ccccc2Cl)c2cc(Br)ccc2N1C` (stereo not drawn), for which the LD50 at 168 h in data set [1] was over 1470 mg/kg. Also, the selectivity ratio is 1.11 in data set [2] and 7.38 in data set [3].
Take `CN1c2ccc(Br)cc2C(c2ccccc2Cl)=NCC1CO` (stereo not drawn): the LD50 at 168 h in data set [1] was over 1470 mg/kg. The selectivity ratio is 1.3 in data set [2] and 38.8 in data set [3].
`COCC1CN=C(c2ccccc2Cl)c2cc(Br)ccc2N1` (stereo not drawn) [Ex 2, 7-Bromo-2-methoxymethyl-5-(2-chlorophenyl)-1H-2,3-dihydro-1,4-benzodiazepin] displayed an LD50 at 168 h in data set [1] of 1330 mg/kg. The selectivity ratio in data set [2] was 5.38; in data set [3], 54.2.
`OCC1CN=C(c2ccccc2Cl)c2cc(Br)ccc2N1` (stereo not drawn) [Ex 4, 7-Bromo-2-hydroxymethyl-5-(2-chlorophenyl)-1H-2,3-dihydro-1,4-benzodiazepine]: the LD50 at 168 h in data set [1] is over 1370 mg/kg. In addition, the selectivity ratio in data set [2] turned out to be 8.6; in data set [3], 164.

Broadly, the LD50 is the dose expected to kill half of the subjects tested.
